Experimental data reported in ChEMBL document CHEMBL6134779, “Design of Proteolytic-Resistant Antifungal Peptides by Utilizing Minimum d-Amino Acid Ratios” (J Med Chem, 2024).
Converted amounts (≈) assume the structure as drawn. The source made the active and inactive calls. The rule behind the calls is not given here.

Assays:
[1] = system: Candida albicans; experiment: Antifungal activity against Candida albicans CGMCC 2.2086 assessed as inhibition of fungal growth incubated for 48 hrs; type: functional
[2] = system: Candida tropicalis; experiment: Antifungal activity against Candida tropicalis CGMCC 2.1975 assessed as inhibition of fungal growth incubated for 48 hrs; type: functional
[3] = system: Candida albicans; experiment: Antifungal activity against Candida albicans SP3902 assessed as inhibition of fungal growth incubated for 48 hrs; type: functional
[4] = system: Candida albicans; experiment: Antifungal activity against Candida albicans SP3903 assessed as inhibition of fungal growth incubated for 48 hrs; type: functional
[5] = system: Candida albicans; experiment: Antifungal activity against Fluconazole-resistant Candida albicans 58288 assessed as inhibition of fungal growth incubated for 48 hrs; type: functional
[6] = system: Candida albicans; experiment: Antifungal activity against Candida albicans SP3876 assessed as inhibition of fungal growth incubated for 48 hrs; type: functional
[7] = system: Candida albicans; experiment: Antifungal activity against Candida albicans SP3931 assessed as inhibition of fungal growth incubated for 48 hrs; type: functional
[8] = system: Candida albicans; experiment: Antifungal activity against Candida albicans 14936 assessed as inhibition of fungal growth incubated for 48 hrs; type: functional
[9] = system: Candida albicans; experiment: Antifungal activity against Candida albicans 17546 assessed as inhibition of fungal growth incubated for 48 hrs; type: functional
[10] = system: Candida albicans; experiment: Antifungal activity against Fluconazole-resistant Candida albicans 56214 assessed as inhibition of fungal growth incubated for 48 hrs; type: functional
[11] = system: Candida albicans; experiment: Antifungal activity against Candida albicans 56452 assessed as inhibition of fungal growth incubated for 48 hrs; type: functional
[12] = system: Candida parapsilosis; experiment: Antifungal activity against Candida parapsilosis CGMCC 2.3989 assessed as inhibition of fungal growth incubated for 48 hrs; type: functional; conditions: Lodderomyces parapsilosis
[13] = Hemolytic activity in human red blood cells assessed as hemolysis incubated for 1 hr; type: toxicity, cell-based, Erythrocyte
[14] = Hemolytic activity in human red blood cells assessed as hemolysis rate at 512 uM incubated for 1 hr relative to control; type: toxicity, cell-based, Erythrocyte; conditions: read-out: Activity
[15] = system: Candida albicans; experiment: Antifungal activity against Candida albicans CGMCC 2.2086 assessed as inhibition of fungal growth incubated for 48 hrs in presence of NaCl; type: functional
[16] = system: Candida albicans; experiment: Antifungal activity against Candida albicans CGMCC 2.2086 assessed as inhibition of fungal growth incubated for 48 hrs in presence of KCl; type: functional
[17] = system: Candida albicans; experiment: Antifungal activity against Candida albicans CGMCC 2.2086 assessed as inhibition of fungal growth incubated for 48 hrs in presence of NH4Cl; type: functional
[18] = system: Candida albicans; experiment: Antifungal activity against Candida albicans CGMCC 2.2086 assessed as inhibition of fungal growth incubated for 48 hrs in presence of MgCl2; type: functional
[19] = system: Candida albicans; experiment: Antifungal activity against Candida albicans CGMCC 2.2086 assessed as inhibition of fungal growth incubated for 48 hrs in presence of ZnCl2; type: functional
[20] = system: Candida albicans; experiment: Antifungal activity against Candida albicans CGMCC 2.2086 assessed as inhibition of fungal growth incubated for 48 hrs in presence of FeCl3; type: functional
[21] = system: Candida albicans; experiment: Antifungal activity against Candida albicans CGMCC 2.2086 assessed as inhibition of fungal growth incubated for 48 hrs in presence of CaCl2; type: functional
[22] = Stability of the compound in NaCl assessed as change in secondary structure by CD spectra analysis; type: physicochemical
[23] = Stability of the compound in KCl assessed as change in secondary structure by CD spectra analysis; type: physicochemical
[24] = Stability of the compound in NH4Cl assessed as change in secondary structure by CD spectra analysis; type: physicochemical
[25] = Stability of the compound in MgCl2 assessed as change in secondary structure by CD spectra analysis; type: physicochemical
[26] = Stability of the compound in ZnCl2 assessed as change in secondary structure by CD spectra analysis; type: physicochemical
[27] = Stability of the compound in FeCl3 assessed as change in secondary structure by CD spectra analysis; type: physicochemical
[28] = Stability of the compound in CaCl2 assessed as change in secondary structure by CD spectra analysis; type: physicochemical
[29] = Proteolytic stability of the compound assessed as trypsin (unknown origin)-mediated drug degradation measured after 8 hrs by 16.5% tricine-SDS-PAGE analysis; type: ADME; conditions: human
[30] = system: Candida albicans; experiment: Antifungal activity against Candida albicans CGMCC 2.2086 assessed as inhibition of fungal growth incubated for 2 hrs in presence of trypsin; type: functional, organism-based
[31] = system: Candida albicans; experiment: Antifungal activity against Candida albicans CGMCC 2.2086 assessed as inhibition of fungal growth incubated for 2 hrs in presence of chymotrypsin; type: functional, organism-based
[32] = system: Candida albicans; experiment: Antifungal activity against Candida albicans CGMCC 2.2086 assessed as inhibition of fungal growth incubated for 2 hrs in presence of protease K; type: functional, organism-based
[33] = Proteolytic stability of the compound assessed as chymotrypsin (unknown origin)-mediated drug degradation measured after 8 hrs by 16.5% tricine-SDS-PAGE analysis; type: ADME; conditions: human
[34] = Proteolytic stability of the compound assessed as protease K (unknown origin)-mediated drug degradation measured after 8 hrs by 16.5% tricine-SDS-PAGE analysis; type: ADME; conditions: human
[35] = Cytotoxicity against porcine IPEC-J2 cells assessed as reduction in cell viability at 128 uM incubated for 4 hrs by MTT assay; type: toxicity, cell-based, Sus scrofa; conditions: pig, ipec-j2, 4 h
[36] = system: HEK293; experiment: Cytotoxicity against HEK293 cells assessed as reduction in cell viability at 128 uM incubated for 4 hrs by MTT assay; type: toxicity, cell-based; conditions: human, hek293, 4 h

`CC(C)[C@H](N)C(=O)N[C@H](C(=O)N[C@H](CCCNC(=N)N)C(=O)N[C@@H](CCCNC(=N)N)C(=O)N[C@@H](Cc1c[nH]cn1)C(=O)N[C@H](C(=O)N[C@H](C(=O)N[C@H](C(=O)N[C@H](C(=O)N[C@H](CCCNC(=N)N)C(=O)N[C@@H](CCCNC(=N)N)C(=O)N[C@@H](Cc1c[nH]cn1)C(=O)N[C@H](C(=O)N[C@H](C(N)=O)C(C)C)C(C)C)C(C)C)C(C)C)C(C)C)C(C)C)C(C)C` gave an MIC95 [1] of over 64 µM, an MIC95 [2] of 4 µM (≈ 6.84 µg/mL) and an MIC95 [3] of over 64 µM. It also gave an MIC95 [4] of over 64 µM, an MIC95 [5] of over 64 µM and an MIC95 [6] of over 64 µM. It also gave an MIC95 [7] of over 64 µM, an MIC95 [8] of over 64 µM and an MIC95 [9] of 64 µM (≈ 109 µg/mL). It also gave an MIC95 [10] of over 64 µM, an MIC95 [11] of over 64 µM and an MIC95 [12] of over 64 µM. It also gave an HC50 at 1 h [13] of over 512 µM, a hemolysis at 1 h, 512 µM [14] of -1.2% and an MIC95 [15] of over 64 µM. The MIC95 [16] was over 64 µM, the MIC95 [17] was 64 µM and the MIC95 [18] was over 64 µM. It also gave an MIC95 [19] of over 64 µM, an MIC95 [20] of over 64 µM and an MIC95 [21] of over 64 µM. For the same molecule, the Stability [22] was “Unstable”, the Stability [23] was “Stable” and the Stability [24] was “Stable”. For the same molecule, the Stability [25] was “Stable”, the Stability [26] was “Stable” and the Stability [27] was “Stable”. For the same molecule, the Stability [28] was “Stable”.
Molecule `CC[C@H](C)[C@H](NC(=O)CN)C(=O)NCC(=O)N[C@@H](C)C(=O)N[C@H](C(=O)N[C@@H](CC(C)C)C(=O)N[C@@H](CCCCN)C(=O)N[C@H](C(=O)N[C@@H](CC(C)C)C(=O)N[C@H](C(=O)N[C@H](C(=O)NCC(=O)N[C@@H](CC(C)C)C(=O)N1CCC[C@H]1C(=O)N[C@@H](C)C(=O)N[C@@H](CC(C)C)C(=O)N[C@H](C(=O)N[C@@H](CO)C(=O)N[C@@H](Cc1c[nH]c2ccccc12)C(=O)N[C@H](C(=O)N[C@@H](CCCCN)C(=O)N[C@@H](CCCNC(=N)N)C(=O)N[C@@H](CCCCN)C(=O)N[C@@H](CCCNC(=N)N)C(=O)N[C@@H](CCC(N)=O)C(=O)N[C@@H](CCC(N)=O)C(N)=O)[C@@H](C)CC)[C@@H](C)CC)[C@@H](C)O)[C@@H](C)O)C(C)C)C(C)C` [MELITTIN] has an MIC95 [1] of 4 µM (≈ 11.4 µg/mL), an MIC95 [2] of 2 µM (≈ 5.69 µg/mL) and an MIC95 [3] of 4 µM (≈ 11.4 µg/mL). The MIC95 [4] was 4 µM (≈ 11.4 µg/mL), the MIC95 [5] was 4 µM (≈ 11.4 µg/mL) and the MIC95 [6] was 4 µM (≈ 11.4 µg/mL). For the same molecule, the MIC95 [7] was 4 µM (≈ 11.4 µg/mL), the MIC95 [8] was 4 µM (≈ 11.4 µg/mL) and the MIC95 [9] was 4 µM (≈ 11.4 µg/mL). It also gave an MIC95 [10] of 2 µM (≈ 5.69 µg/mL), an MIC95 [11] of 4 µM (≈ 11.4 µg/mL) and an MIC95 [12] of 2 µM (≈ 5.69 µg/mL). The Stability [29] was “Unstable”, the Activity [30] was “inactive” and the Activity [31] was “inactive”. The Activity [32] was “inactive”, the Stability [33] was “Unstable” and the Stability [34] was “Unstable”.
Work on `CC[C@H](C)[C@H](N)C(=O)N[C@H](C(=O)N[C@H](CCCNC(=N)N)C(=O)N[C@@H](CCCNC(=N)N)C(=O)N[C@@H](Cc1c[nH]cn1)C(=O)N[C@H](C(=O)N[C@H](C(=O)N[C@H](C(=O)N[C@H](C(=O)N[C@H](CCCNC(=N)N)C(=O)N[C@@H](CCCNC(=N)N)C(=O)N[C@@H](Cc1c[nH]cn1)C(=O)N[C@H](C(=O)N[C@H](C(=O)N[C@H](C(=O)N[C@H](C(=O)N[C@H](CCCNC(=N)N)C(=O)N[C@@H](CCCNC(=N)N)C(=O)N[C@@H](Cc1c[nH]cn1)C(=O)N[C@H](C(=O)N[C@H](C(=O)N[C@H](C(=O)N[C@H](C(=O)N[C@H](CCCNC(=N)N)C(=O)N[C@@H](CCCNC(=N)N)C(=O)N[C@@H](Cc1c[nH]cn1)C(=O)N[C@H](C(=O)N[C@H](C(N)=O)[C@@H](C)CC)[C@@H](C)CC)[C@@H](C)CC)[C@@H](C)CC)[C@@H](C)CC)[C@@H](C)CC)[C@@H](C)CC)[C@@H](C)CC)[C@@H](C)CC)[C@@H](C)CC)[C@@H](C)CC)[C@@H](C)CC)[C@@H](C)CC)[C@@H](C)CC)[C@@H](C)CC` yielded an MIC95 [1] of 4 µM (≈ 14.5 µg/mL), an MIC95 [2] of 4 µM (≈ 14.5 µg/mL) and an MIC95 [3] of 4 µM (≈ 14.5 µg/mL). The MIC95 [4] was 4 µM (≈ 14.5 µg/mL), the MIC95 [5] was 8 µM (≈ 29 µg/mL) and the MIC95 [6] was 4 µM (≈ 14.5 µg/mL). It also gave an MIC95 [7] of 8 µM (≈ 29 µg/mL), an MIC95 [8] of 4 µM (≈ 14.5 µg/mL) and an MIC95 [9] of 8 µM (≈ 29 µg/mL). For the same molecule, the MIC95 [10] was 4 µM (≈ 14.5 µg/mL), the MIC95 [11] was 8 µM (≈ 29 µg/mL) and the MIC95 [12] was 4 µM (≈ 14.5 µg/mL). The HC50 at 1 h [13] was over 512 µM, the hemolysis at 1 h, 512 µM [14] was 38.9% and the Activity [35] was “Toxic”. For the same molecule, the Activity [36] was “Toxic”, the MIC95 [15] was 32 µM and the MIC95 [16] was 8 µM. The MIC95 [17] was 8 µM, the MIC95 [18] was 8 µM and the MIC95 [19] was 16 µM. For the same molecule, the MIC95 [20] was 16 µM, the MIC95 [21] was 16 µM and the Stability [22] was “Unstable”. The Stability [23] was “Stable”, the Stability [24] was “Stable” and the Stability [25] was “Stable”. The Stability [26] was “Stable”, the Stability [27] was “Stable” and the Stability [28] was “Stable”.
